Data on 28 compounds can be found in patent publication US20190292155A1, “THERAPEUTIC INHIBITORY COMPOUNDS” (LifeSci Pharmaceuticals, Inc., priority 2016, published 2019).

Structures are written as SMILES.

The term IC50 denotes the point on the concentration scale where inhibition reaches its midpoint.

This assay addresses T1, human complement factor D (Homo sapiens, UniProt P00746).
T1 construct: purchased R&D Systems 1824-SE
The experiment in a line: In vitro enzyme inhibition of human complement factor D (Z-Lys-SBzl/DTNB, A405). The class given is biochemical. The conditions noted are these: biochemical assay, substrate Z-Lys-SBzl; read-out: CFD IC50. The protocol: The ability of the compounds disclosed herein to inhibit human complement factor D inhibitory activity was quantified according to the 12-step protocol provided below. • 1. Prepare assay buffer: 50 mM Tris/HCl, pH 7.5, 1 M NaCl. • 2. […] Then dilute the serial concentrations of Nafamostat Mesilate 20-fold in assay buffer. • 3. […] 0.5% DMSO was in each well finally. • 4. […] Add 10 μl diluted test compounds duplicated into the 96-well plate. […] 0.5% DMSO was in each well finally. • 6. Dilute 20 mM substrate Z-Lys-SBzl (Bachem, Cat# M-1300) to 200 μM in assay buffer with 200 μM DTNB (Sigma, Catalog# D8130). • 7. […] Add 40 μl diluted Complement Factor D in the 96-well plate. • 8. Positive control well contains Complement Factor D without test compound. Negative control well contains neither Complement Factor D nor test compound. Using assay buffer, bring the total volume of all controls to 50 al. • 9. Pre-incubate the plate for 5 min at room temperature. • 10. Add 50 μl of diluted substrate/DTNB mixture into each well. […] For kinetic reading: Immediately start measuring absorbance (A405 nm) continuously and record data every 30 sec for 60 min. • 12. Data analysis • Inhibition activity of compound was evaluated by IC50. IC50 was calculated according the dose-response curve of compound fitted using GraphPadPrism with “log(inhibitor)-response (variable slope)” equation. • % inhibition was calculated by using following equation:
[formula] • Mean(NC): The average value of the negative control wells' A405 nm values. • Mean(PC): The average value of the positive control wells' A405 nm values.

T1 sequence (P00746 26-253): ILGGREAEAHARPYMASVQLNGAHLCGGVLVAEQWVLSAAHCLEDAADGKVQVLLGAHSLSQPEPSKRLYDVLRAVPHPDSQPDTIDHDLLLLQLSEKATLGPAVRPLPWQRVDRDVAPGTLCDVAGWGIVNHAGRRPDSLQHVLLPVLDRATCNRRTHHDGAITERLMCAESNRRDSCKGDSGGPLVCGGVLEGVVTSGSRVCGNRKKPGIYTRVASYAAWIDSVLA

For `C[C@@H](C(=O)Nc1cccc(Cl)c1F)N(C)C(=O)Cn1nc(C(N)=O)c2ccccc21` [Example 2, (S)-1-(2-((1-((3-chloro-2-fluorophenyl)amino)-1-oxopropan-2-yl)(methyl)amino)-2-oxoethyl)-1H-indazole-3-carboxamide], the IC50 fell in the range of 1000 to 10000 nM.

On to `C[C@@H](C(=O)NCc1cccc(Cl)c1F)N(C)C(=O)Cn1nc(C(N)=O)c2ccccc21` [Example 3, (S)-1-(2-((1-((3-chloro-2-fluorobenzyl)amino)-1-oxopropan-2-yl)(methyl)amino)-2-oxoethyl)-1H-indazole-3-carboxamide], for which the IC50 lay in the range of 1000 to 10000 nM.

Consider `NC(=O)c1nn(CC(=O)N(CC(=O)Nc2cccc(Cl)c2F)C2CC2)c2ccccc12` [Example 7, 1-(2-((2-((3-chloro-2-fluorophenyl)amino)-2-oxoethyl)(cyclopropyl)amino)-2-oxoethyl)-1H-indazole-3-carboxamide], for which the IC50 fell in the range of 100 to 1000 nM.

For the compound `CC1(C)CC(O)CC(NC(=O)CN(C(=O)Cn2nc(C(N)=O)c3ccccc32)C2CC2)C1` (stereo not shown) [Example 9, 1-(2-(cyclopropyl(2-((5-hydroxy-3,3-dimethylcyclohexyl)amino)-2-oxoethyl)amino)-2-oxoethyl)-1H-indazole-3-carboxamide], the IC50 fell in the range of 1000 to 10000 nM.

Regarding `CC1(C)C[C@H](O)C[C@@H](NC(=O)CN(C(=O)Cn2nc(C(N)=O)c3ccccc32)C2CC2)C1` [Example 10, 1-(2-(cyclopropyl(2-(((1S,5S)-5-hydroxy-3,3-dimethylcyclohexyl)amino)-2-oxoethyl)amino)-2-oxoethyl)-1H-indazole-3-carboxamide], the concentration for half-maximal inhibition (IC50) was 1000 to 10000 nM.

Take `NC(=O)c1nn(CC(=O)N(CCO)CC(=O)Nc2cccc(Cl)n2)c2ccccc12` [Example 13, 1-(2-((2-((6-chloropyridin-2-yl)amino)-2-oxoethyl)(2-hydroxyethyl)amino)-2-oxoethyl)-1H-indazole-3-carboxamide]: the IC50 fell in the range of 1000 to 10000 nM.

For the compound `CN(CC(=O)Nc1cccc(Cl)n1)C(=O)Cn1nc(C(N)=O)c2ccccc21` [Example 14, 1-(2-((2-((6-chloropyridin-2-yl)amino)-2-oxoethyl)(methyl)amino)-2-oxoethyl)-1H-indazole-3-carboxamide], the IC50 lay in the range of 1000 to 10000 nM.

Regarding `CCN(CC(=O)Nc1cccc(Cl)n1)C(=O)Cn1nc(C(N)=O)c2ccccc21` [Example 15, 1-(2-((2-((6-chloropyridin-2-yl)amino)-2-oxoethyl)(ethyl)amino)-2-oxoethyl)-1H-indazole-3-carboxamide], the concentration for half-maximal inhibition (IC50) lay in the range of 100 to 1000 nM.

For the compound `NC(=O)c1nn(CC(=O)N(CC(=O)Nc2cccc(Cl)n2)C2CCNCC2)c2ccccc12` [Example 17, 1-(2-((2-((6-chloropyridin-2-yl)amino)-2-oxoethyl)(piperidin-4-yl)amino)-2-oxoethyl)-1H-indazole-3-carboxamide], the IC50 fell in the range of 1000 to 10000 nM.

`NCCN(CC(=O)Nc1cccc(Cl)n1)C(=O)Cc1nn(C(N)=O)c2ccccc12` [Example 18, 3-(2-((2-aminoethyl)(2-((6-chloropyridin-2-yl)amino)-2-oxoethyl)amino)-2-oxoethyl)-1H-indazole-1-carboxamide]: the IC50 was 1000 to 10000 nM.

Take `NC(=O)n1nc(CC(=O)N(CC(=O)Nc2cccc(Cl)n2)C2CCCC2)c2ccccc21` [Example 19, 3-(2-((2-((6-chloropyridin-2-yl)amino)-2-oxoethyl)(cyclopentyl)amino)-2-oxoethyl)-1H-indazole-1-carboxamide]: the IC50 lay in the range of 100 to 1000 nM.

As to `NC(=O)n1nc(CC(=O)N(CC(=O)Nc2cccc(Cl)n2)C2CCOCC2)c2ccccc21` [Example 21, 3-(2-((2-((6-chloropyridin-2-yl)amino)-2-oxoethyl)(tetrahydro-2H-pyran-4-yl)amino)-2-oxoethyl)-1H-indazole-1-carboxamide], the IC50 is 1000 to 10000 nM.

With `NC(=O)c1nn(CC(=O)N(CC(=O)Nc2cccc(Cl)n2)C2CNC2)c2ccccc12` [Example 22, 1-(2-(azetidin-3-yl(2-((6-chloropyridin-2-yl)amino)-2-oxoethyl)amino)-2-oxoethyl)-1H-indazole-3-carboxamide], the IC50 was 1000 to 10000 nM.

As to `CNCCN(CC(=O)Nc1cccc(Cl)n1)C(=O)Cn1nc(C(N)=O)c2ccccc21` [Example 23, 1-(2-((2-((6-chloropyridin-2-yl)amino)-2-oxoethyl)(2-(methylamino)ethyl)amino)-2-oxoethyl)-1H-indazole-3-carboxamide], the IC50 lay in the range of 1000 to 10000 nM.

As to `CC(=O)NCCN(CC(=O)Nc1cccc(Cl)n1)C(=O)Cn1nc(C(N)=O)c2ccccc21` [Example 24, 1-(2-((2-acetamidoethyl)(2-((6-chloropyridin-2-yl)amino)-2-oxoethyl)amino)-2-oxoethyl)-1H-indazole-3-carboxamide], the half-inhibitory concentration (IC50) lay within 1000 to 10000 nM.

Regarding `NC(=O)c1nn(CC(=O)N(CC(=O)Nc2cccc(Cl)n2)Cc2ccncc2)c2ccccc12` [Example 25, 1-(2-((2-((6-chloropyridin-2-yl)amino)-2-oxoethyl)(pyridin-4-ylmethyl)amino)-2-oxoethyl)-1H-indazole-3-carboxamide], the IC50 is greater than 10000 nM.

`NC(=O)c1nn(CC(=O)N(CC(=O)Nc2cccc(Cl)n2)C2CCNC2)c2ccccc12` (stereo not shown) [Example 26, 1-(2-((2-((6-chloropyridin-2-yl)amino)-2-oxoethyl)(pyrrolidin-3-yl)amino)-2-oxoethyl)-1H-indazole-3-carboxamide]: the IC50 was in the range of 1000 to 10000 nM.

Regarding `NC(=O)c1nn(CC(=O)N(CC(=O)NCc2cccc(Cl)c2F)Cc2ccsc2)c2ccccc12` [Example 27, 1-(2-((2-((3-chloro-2-fluorobenzyl)amino)-2-oxoethyl)(thiophen-3-ylmethyl)amino)-2-oxoethyl)-1H-indazole-3-carboxamide], the IC50 was in the range of 1000 to 10000 nM.

Turning to `NC(=O)c1nn(CC(=O)N(CC(=O)NCc2cccc(Cl)c2F)C2CCOCC2)c2ccccc12` [Example 29, 1-(2-((2-((3-chloro-2-fluorobenzyl)amino)-2-oxoethyl)(tetrahydro-2H-pyran-4-yl)amino)-2-oxoethyl)-1H-indazole-3-carboxamide], the 50% inhibitory concentration (IC50) fell in the range of 1000 to 10000 nM.

With `NCCN(CC(=O)NCc1cccc(Cl)c1F)C(=O)Cn1nc(C(N)=O)c2ccccc21` [Example 31, 1-(2-((2-aminoethyl)(2-((3-chloro-2-fluorobenzyl)amino)-2-oxoethyl)amino)-2-oxoethyl)-1H-indazole-3-carboxamide], the 50% inhibitory concentration (IC50) was 100 to 1000 nM.

Regarding `NC(=O)c1nn(CC(=O)N(CC(=O)NCc2cccc(Cl)c2F)Cc2ccncc2)c2ccccc12` [Example 32, 1-(2-((2-((3-chloro-2-fluorobenzyl)amino)-2-oxoethyl)(pyridin-4-ylmethyl)amino)-2-oxoethyl)-1H-indazole-3-carboxamide], the IC50 was in the range of 1000 to 10000 nM.

Turning to `NC(=O)c1nn(CC(=O)N(CC(=O)NCc2cccc(Cl)c2F)Cc2cccnc2)c2ccccc12` [Example 35, 1-(2-((2-((3-chloro-2-fluorobenzyl)amino)-2-oxoethyl)(pyridin-3-ylmethyl)amino)-2-oxoethyl)-1H-indazole-3-carboxamide], the IC50 lay within 1000 to 10000 nM.

For the compound `NC(=O)c1nn(CC(=O)N(CC(=O)NCc2cccc(Cl)c2F)c2ccccc2)c2ccccc12` [Example 36, 1-(2-((2-((3-chloro-2-fluorobenzyl)amino)-2-oxoethyl)(phenyl)amino)-2-oxoethyl)-1H-indazole-3-carboxamide], the 50% inhibitory concentration (IC50) fell in the range of 1000 to 10000 nM.

For `NC(=O)c1nn(CC(=O)N(CC(=O)NCc2cccc(Cl)c2F)C2CCNC2)c2ccccc12` (stereo not shown) [Example 37, 1-(2-((2-((3-chloro-2-fluorobenzyl)amino)-2-oxoethyl)(pyrrolidin-3-yl)amino)-2-oxoethyl)-1H-indazole-3-carboxamide], the IC50 lay in the range of 1000 to 10000 nM.

Take `C[C@H](C(=O)NCc1cccc(Cl)c1F)N(C(=O)Cn1nc(C(N)=O)c2ccccc21)C1CC1` [Example 38, (R)-1-(2-((1-((3-chloro-2-fluorobenzyl)amino)-1-oxopropan-2-yl)(cyclopropyl)amino)-2-oxoethyl)-1H-indazole-3-carboxamide]: the half-inhibitory concentration (IC50) was 1000 to 10000 nM.

For the compound `C[C@@H](C(=O)NCc1cccc(Cl)c1F)N(C(=O)Cn1nc(C(N)=O)c2ccccc21)C1CC1` [Example 39, (S)-1-(2-((1-((3-chloro-2-fluorobenzyl)amino)-1-oxopropan-2-yl)(cyclopropyl)amino)-2-oxoethyl)-1H-indazole-3-carboxamide], the IC50 was greater than 10000 nM.

As to `NC(=O)n1cc(CC(=O)N(CC(=O)NCc2cccc(Cl)c2F)C2CC2)c2ccccc21` [Example 41, 3-(2-((2-((3-chloro-2-fluorobenzyl)amino)-2-oxoethyl)(cyclopropyl)amino)-2-oxoethyl)-1H-indole-1-carboxamide], the IC50 is 100 to 1000 nM.

As for `NC(=O)c1nc(CC(=O)N(CC(=O)NCc2cccc(Cl)c2F)C2CC2)n2ccccc12` [Example 42, 3-(2-((2-((3-chloro-2-fluorobenzyl)amino)-2-oxoethyl)(cyclopropyl)amino)-2-oxoethyl)imidazo[1,5-a]pyridine-1-carboxamide], the IC50 lay in the range of 100 to 1000 nM.
